Experimental data taken from the NIST ThermoML archive (doi:10.1021/je901092b).
± gives the expanded uncertainty stated by the source.

Conditions: 101.33 kPa, Liquid; for mass density: Pycnometric method

CCCCn1cc[n+](C)c1.[I-] [1-butyl-3-methylimidazolium iodide]
Conditions	mass density [kg/m3]	viscosity [mPa·s]
299.15 K	1434 ± 10	593.68 ± 130
304.15 K	1432 ± 10	442.64 ± 89
308.15 K	1430 ± 10	336.95 ± 61
313.15 K	1426 ± 10	227.98 ± 34
318.15 K	1422 ± 10	173.86 ± 21
323.15 K	1418 ± 10	134.23 ± 14
328.15 K	1414 ± 10	105.34 ± 8.7
333.15 K	1406 ± 10	81.51 ± 5.3
338.15 K	1400 ± 10	65.85 ± 3.3
343.15 K	1398 ± 10	53.43 ± 2.2
348.15 K	1396 ± 10	44.68 ± 1.9
353.15 K	1394 ± 10	36.52 ± 1.6
358.15 K	1392 ± 10	30.4 ± 1.2
363.15 K	1388 ± 10	26.11 ± 0.98
368.15 K	1386 ± 10	22.5 ± 0.76
373.15 K	1382 ± 10	20.43 ± 0.64
378.15 K	1376 ± 10	18.1 ± 0.66
383.15 K	1370 ± 10	15.22 ± 0.61
388.15 K	1360 ± 10	13.11 ± 0.52

CCCCCCn1cc[n+](C)c1.[I-] [1-hexyl-3-methylimidazolium iodide]
Conditions	mass density [kg/m3]	viscosity [mPa·s]
305.15 K	1326 ± 10	809.79 ± 200
309.15 K	1324 ± 10	600.07 ± 140
314.15 K	1322 ± 10	432.98 ± 87
318.15 K	1320 ± 10	334.25 ± 59
323.15 K	1318 ± 10	245.55 ± 37
328.15 K	1316 ± 10	190.14 ± 24
333.15 K	1314 ± 10	146.47 ± 16
338.15 K	1312 ± 10	116.13 ± 10
343.15 K	1310 ± 10	88.04 ± 6.1
348.15 K	1308 ± 10	73.85 ± 3.8
353.15 K	1306 ± 10	60.63 ± 2.5
359.15 K	1304 ± 10	48.47 ± 2.1
363.15 K	1302 ± 10	42.23 ± 1.6
373.15 K	1298 ± 10	30.45 ± 1.2
378.15 K	1296 ± 10	26.62 ± 0.93
383.15 K	1294 ± 10	23.19 ± 0.82
388.15 K	1292 ± 10	20.3 ± 0.74

CCCCCCCC[n+]1ccn(C)c1.[I-] [1-methyl-3-octyl-1H-imidazolium iodide]
Conditions	mass density [kg/m3]	viscosity [mPa·s]
300.15 K	1258 ± 10	1306.3 ± 390
303.15 K	1254 ± 10	981.11 ± 260
308.15 K	1250 ± 10	726.71 ± 180
313.15 K	1246 ± 10	524.3 ± 110
319.15 K	1242 ± 10	404.37 ± 77
323.15 K	1240 ± 10	296.66 ± 50
328.15 K	1234 ± 10	229.09 ± 33
333.15 K	1230 ± 10	174.35 ± 21
338.15 K	1228 ± 10	138.53 ± 14
343.15 K	1224 ± 10	104.81 ± 8.5
348.15 K	1218 ± 10	89.02 ± 5.6
353.15 K	1212 ± 10	73.17 ± 4
358.15 K	1210 ± 10	58.41 ± 2.5
363.15 K	1206 ± 10	49.6 ± 1.9
368.15 K	1204 ± 10	43.21 ± 1.7
373.15 K	1200 ± 10	35.57 ± 1.4
378.15 K	1196 ± 10	31.43 ± 1.1
